Data from the NIST ThermoML archive (doi:10.1021/je400917j).

Assay: xn = mol fraction of the nth substance listed
Conditions: 101 kPa, Liquid; for mass density: Vibrating tube method

CCCC(C)O (stereo not drawn) [pentan-2-ol] + CC(=O)N(C)C
Conditions	mass density, 298.15 K [kg/m3]	mass density, 303.15 K [kg/m3]	mass density, 308.15 K [kg/m3]	mass density, 313.15 K [kg/m3]	viscosity, 298.15 K [mPa·s]	viscosity, 303.15 K [mPa·s]	viscosity, 308.15 K [mPa·s]	viscosity, 313.15 K [mPa·s]
x2 = 0	805.4	800.9	796.9	792.6	3.5	2.83	2.35	1.98
x2 = 0.0811	813.4	809	804.9	800.3	2.87	2.42	2.08	1.75
x2 = 0.16	821.8	817.3	813	808.2	2.35	2.01	1.8	1.52
x2 = 0.2399	830.7	826	821.6	816.6	1.93	1.69	1.57	1.33
x2 = 0.35	843.5	838.7	834.1	828.9	1.52	1.38	1.29	1.13
x2 = 0.4398	854.5	849.6	845	839.6	1.3	1.21	1.14	1.01
x2 = 0.5595	870.1	865	860.4	854.9	1.13	1.07	0.99	0.89
x2 = 0.6499	882.5	877.5	872.8	867.4	1.05	0.99	0.91	0.83
x2 = 0.7398	895.4	890.4	885.8	880.5	0.99	0.93	0.86	0.793
x2 = 0.8499	912.1	907.3	902.8	897.8	0.95	0.89	0.82	0.761
x2 = 0.9398	926.5	921.9	917.5	913	0.938	0.878	0.804	0.752
